Measurements reported in ChEMBL document CHEMBL1157982, “Isolation, identification, and enantioselective synthesis of octane-1,3,7-triol: determination of its absolute configuration” (J Nat Prod, 1999).

How the values were obtained:
[1] = Toxicity in rat; type: organism-based; settings: in vivo
Bacillus subtilis = assay: Antibacterial activity against Bacillus subtilis at 5 umol/L; type: functional

SMILES: CCCCC[C@@H](O)CCO
- LD50 [1]: 20000 mg/kg
- Activity (Bacillus subtilis): 50%
